As usually defined, the melting point is the temperature of the solid-liquid transition.

For `C[C@H](CO)Nc1nc(SCc2ccccc2F)nc2[nH]c(N)nc12` [Example 4, (2R)-2-[[8-amino-2-[[(2-fluorophenyl)methyl]thio]-9H-purin-6-yl]amino]-1-propanol], the melting point is 250 to 255 °C (dec.).

The values are drawn from patent US6958344B2, “Pyrimidine compounds and their use as modulators of chemokine receptor activity” (AstraZeneca AB, priority 2000, dated 2005).
